biological target: Recombinant human MALT-1 (amino acids 340-824) (Homo sapiens (Human), UniProt Q9UDY8); experiment: MALT-1 inhibition assay (fluorogenic substrate Ac-LRSR-Rh110-DP); format: biochemical; conditions: recombinant human MALT-1, substrate Ac-LRSR-Rh110-DP
Protocol: MALT-1 paracaspase activity was measured using the fluorogenic substrate Ac-LRSR-Rh110-DP (purchased from Biosantan GmbH). […] The reaction was initiated by addition of substrate. Final concentrations of MALT-1 and substrate were 3 nM and 10 μM respectively. Reactions were incubated in the dark for 60 minutes at 25° C. […] Percent inhibition values were calculated from relative fluorescence units at different doses and fitted to a 4-parameter logistic curve to determine IC50 values (see Table 1).

Chain of Recombinant human MALT-1 (amino acids 340-824) (Q9UDY8 340-824): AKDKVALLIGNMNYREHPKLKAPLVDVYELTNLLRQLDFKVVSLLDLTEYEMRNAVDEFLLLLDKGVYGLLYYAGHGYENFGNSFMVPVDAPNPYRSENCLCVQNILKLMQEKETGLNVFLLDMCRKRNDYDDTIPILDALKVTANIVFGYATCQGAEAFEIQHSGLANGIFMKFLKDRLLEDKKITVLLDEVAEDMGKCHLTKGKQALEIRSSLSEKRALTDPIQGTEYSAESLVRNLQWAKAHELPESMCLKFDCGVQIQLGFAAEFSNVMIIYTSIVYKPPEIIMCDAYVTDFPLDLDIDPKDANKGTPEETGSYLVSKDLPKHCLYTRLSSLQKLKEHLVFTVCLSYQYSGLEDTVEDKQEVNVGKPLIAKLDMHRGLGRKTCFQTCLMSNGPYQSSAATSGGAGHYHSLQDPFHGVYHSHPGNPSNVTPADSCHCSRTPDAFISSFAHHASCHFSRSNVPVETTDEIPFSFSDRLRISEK

IC50 [nM] | SMILES
109 | CN(C(=O)[C@H](O)C1CCS(=O)(=O)CC1)[C@@H](c1ccc(N2CCCc3c2cnc2cc(Cl)nn32)cc1)C(F)(F)F (relative stereo) [CPD0073972, (2rel-R)—N-[(1S)-1-(4-{4-chloro-2,3,7,10-tetraazatricyclo[7.4.0.0^2,6]trideca-1(9),3,5,7-tetraen-10-yl}phenyl)-2,2,2-trifluoroethyl]-2-(1,1-dioxo-1λ^e-thian-4-yl)-2-hydroxy-N-methylacetamide]
75 | CN(C(=O)[C@H]1CCN(C(=O)C2(O)CC2)C1)[C@@H](c1ccc(N2CCCc3c2cnc2cc(Cl)nn32)cc1)C(F)(F)F (relative stereo) [CPD0073979, (3rel-S)-N-[(1S)-1-[4-(4-chloro-2,3,7,10-tetrazatricyclo[7.4.0.0^2,6]trideca-1(9),3,5,7-tetraen-10-yl)phenyl]-2,2,2-trifluoro-ethyl]-1-(1-hydroxycyclopropanecarbonyl)-N-methyl-pyrrolidine-3-carboxamide]
80 | CN1C[C@@H](C(=O)N(C)[C@@H](c2ccc(N3CCCc4c3cnc3cc(Cl)nn43)cc2)C(F)(F)F)NC1=O (relative stereo) [CPD0075574, (4rel S)-N-[(1S)-1-[4-(4-chloro-2,3,7,10-tetrazatricyclo[7.4.0.0^2,6]trideca-1(9),3,5,7-tetraen-10-yl)phenyl]-2,2,2-trifluoro-ethyl]-N,1-dimethyl-2-oxo-imidazolidine-4-carboxamide]
42 | CN1C[C@H](C(=O)N(C)[C@@H](c2ccc(N3CCCc4c3cnc3cc(Cl)nn43)cc2)C(F)(F)F)NC1=O (relative stereo) [CPD0075577]
51 | CN(C(=O)[C@@H]1CNC(=O)N1)[C@@H](c1ccc(N2CCCc3c2cnc2cc(Cl)nn32)cc1)C(F)(F)F (relative stereo) [CPD0075578, (4rel S)-N-[(1S)-1-[4-(4-chloro-2,3,7,10-tetrazatricyclo[7.4.0.0^2,6]trideca-1(9),3,5,7-tetraen-10-yl)phenyl]-2,2,2-trifluoro-ethyl]-N-methyl-2-oxo-imidazolidine-4-carboxamide]
44 | CN(C(=O)C1CNC(=O)N1)[C@@H](c1ccc(N2CCCc3c2cnc2cc(Cl)nn32)cc1)C(F)(F)F (stereo in doubt) [CPD0075579, (4rel R)-N-[(1S)-1-[4-(4-chloro-2,3,7,10-tetrazatricyclo[7.4.0.0^2,6]trideca-1(9),3,5,7-tetraen-10-yl)phenyl]-2,2,2-trifluoro-ethyl]-N-methyl-2-oxo-imidazolidine-4-carboxamide]
581 | CN(C(=O)[C@H]1CNC(=O)C1)[C@H](c1ccc(N2CCCc3c2cnc2cc(Cl)nn32)cc1)C(F)(F)F (stereo in doubt) [CPD0077244, (3 rel-R)—N-[(1R)-1-[4-(4-chloro-2,3,7,10-tetrazatricyclo[7.4.0.0^2,6]trideca-1(9),3,5,7-tetraen-10-yl)phenyl]-2,2,2-trifluoro-ethyl]-N-methyl-5-oxo-pyrrolidine-3-carboxamide]
355 | CN(C(=O)[C@@H]1CNC(=O)C1)[C@H](c1ccc(N2CCCc3c2cnc2cc(Cl)nn32)cc1)C(F)(F)F (stereo in doubt) [CPD0077245, (3 rel-S)—N-[(1R)-1-[4-(4-chloro-2,3,7,10-tetrazatricyclo[7.4.0.0^2,6]trideca-1(9),3,5,7-tetraen-10-yl)phenyl]-2,2,2-trifluoro-ethyl]-N-methyl-5-oxo-pyrrolidine-3-carboxamide]
46 | CN(C(=O)C1CC(O)C1)[C@@H](c1ccc(N2CCCc3c2cnc2cc(Cl)nn32)cc1)C(F)(F)F (some centres unmarked) [CPD0073055]
54 | CN(C(=O)[C@@H]1CCN(C(=O)C2(O)CC2)C1)[C@@H](c1ccc(N2CCCc3c2cnc2cc(Cl)nn32)cc1)C(F)(F)F [CPD0073978, (3rel-R)-N-[(1S)-1-[4-(4-chloro-2,3,7,10-tetrazatricyclo[7.4.0.0^2,6]trideca-1(9),3,5,7-tetraen-10-yl)phenyl]-2,2,2-trifluoro-ethyl]-1-(1-hydroxycyclopropanecarbonyl)-N-methyl-pyrrolidine-3-carboxamide]

Second part, the molecule before the results:

SMILES | IC50 [nM]
C[C@@H]1CCc2c(cnc3cc(Cl)nn23)N1c1ccc([C@H](N(C)C(=O)[C@H]2CC[S@](=N)(=O)CC2)C(F)(F)F)cc1 (relative stereo) [CPD0074551, (1rel r 4rel r) N-[(1S)-1-[4-[(11-rel R)-4-chloro-11-methyl-2,3,7,10-tetrazatricyclo[7.4.0.0^2,6]trideca-1(9),3,5,7-tetraen-10-yl]phenyl]-2,2,2-trifluoro-ethyl]-1-imino-N-methyl-1-oxo-thiane-4-carboxamide] | 57
C[C@@H]1CCc2c(cnc3cc(Cl)nn23)N1c1ccc([C@H](N(C)C(=O)[C@H]2CC[S@@](=N)(=O)CC2)C(F)(F)F)cc1 (relative stereo) [CPD0074552, (1rel s 4rel s) N-[(1S)-1-[4-[(11-rel R)-4-chloro-11-methyl-2,3,7,10-tetrazatricyclo[7.4.0.0^2,6]trideca-1(9),3,5,7-tetraen-10-yl]phenyl]-2,2,2-trifluoro-ethyl]-1-imino-N-methyl-1-oxo-thiane-4-carboxamide] | 78
C[C@H]1CCc2c(cnc3cc(Cl)nn23)N1c1ccc([C@H](N(C)C(=O)[C@H]2CC[S@](=N)(=O)CC2)C(F)(F)F)cc1 (relative stereo) [CPD0074564, (1rel r 4rel r) N-[(1S)-1-[4-[(11-rel S)-4-chloro-11-methyl-2,3,7,10-tetrazatricyclo[7.4.0.0^2,6]trideca-1(9),3,5,7-tetraen-10-yl]phenyl]-2,2,2-trifluoro-ethyl]-1-imino-N-methyl-1-oxo-thiane-4-carboxamide] | 248
C[C@H]1CCc2c(cnc3cc(Cl)nn23)N1c1ccc([C@H](N(C)C(=O)[C@H]2CC[S@@](=N)(=O)CC2)C(F)(F)F)cc1 (relative stereo) [CPD0074565, (1rel s 4rel s) N-[(1S)-1-[4-[(11-rel S)-4-chloro-11-methyl-2,3,7,10-tetrazatricyclo[7.4.0.0^2,6]trideca-1(9),3,5,7-tetraen-10-yl]phenyl]-2,2,2-trifluoro-ethyl]-1-imino-N-methyl-1-oxo-thiane-4-carboxamide] | 377
CO[C@@H](C)c1c(Nc2ccc([C@H](N(C)C(=O)[C@H]3CC[S@](=N)(=O)CC3)C(F)(F)F)cc2)cnn2cc(Cl)nc12 (relative stereo) [CPD0082473, (1rel-r, 4rel-r) N-[(1S)-1-[4-[[2-chloro-8-[(1 S)-1-methoxyethyl]imidazo[1,2-b]pyridazin-7-yl]amino]phenyl]-2,2,2-trifluoro-ethyl]-1-imino-N-methyl-1-oxo-thiane-4-carboxamide] | 52
CO[C@@H](C)c1c(Nc2ccc([C@H](N(C)C(=O)[C@H]3CC[S@@](=N)(=O)CC3)C(F)(F)F)cc2)cnn2cc(Cl)nc12 (relative stereo) [CPD0082474, (1rel-s,4rel-s) N-[(1 S)-1-[4-[[2-chloro-8-[(1S)-1-methoxyethyl]imidazo[1,2-b]pyridazin-7-yl]amino]phenyl]-2,2,2-trifluoro-ethyl]-1-imino-N-methyl-1-oxo-thiane-4-carboxamide] | 50
COc1ccc2ncc(Nc3ccc([C@H](N(C)C(=O)C4CCS(=O)(=O)CC4)C(F)(F)F)cc3)c([C@@H](C)O)c2n1 (relative stereo) [CPD0084256, N-methyl-1,1-dioxo-N-[(1S)-2,2,2-trifluoro-1-[4-[[4-[(1rel R)-1-hydroxyethyl]-6-methoxy-1,5-naphthyridin-3-yl]amino]phenyl]ethyl]thiane-4-carboxamide] | 38
COc1ccc2ncc(Nc3ccc([C@H](N(C)C(=O)C4CCS(=O)(=O)CC4)C(F)(F)F)cc3)c([C@H](C)N)c2n1 (relative stereo) [CPD0084307, N-[(1 S)-1-[4-[[4-[(1rel S)-1-aminoethyl]-6-methoxy-1,5-naphthyridin-3-yl]amino]phenyl]-2,2,2-trifluoroo-ethyl]-N-methyl-1,1-dioxo-thiane-4-carboxamide] | 124
CN(C(=O)[C@@H]1CNC(=O)O1)[C@@H](c1ccc(N2CCCc3c2cnc2cc(Cl)nn32)cc1)C(F)(F)F (single isomer, unassigned) [CPD0075573] | 197
COc1ccc2ncc(Nc3ccc([C@@H](N(C)C(=O)[C@H]4CC[S@@](=N)(=O)CC4)C(F)(F)F)cc3)c([C@@H](C)OC)c2n1 (stereo in doubt) [CPD0077188, (1 rel-r,4rel-r)-1-imino-N-methyl-1-oxo-N-[(1R)-2,2,2-trifluoro-1-[4-({6-methoxy-4-[(1 rel-R)-1-methoxyethyl]-1,5-naphthyridin-3-yl}amino)phenyl]ethyl]-1λ^6-thiane-4-carboxamide] | 255
COc1ccc2ncc(Nc3ccc([C@@H](N(C)C(=O)[C@H]4CC[S@](=N)(=O)CC4)C(F)(F)F)cc3)c([C@@H](C)OC)c2n1 (stereo in doubt) [CPD0077189, (1 rel-s,4rel-s)-1-imino-N-methyl-1-oxo-N-[(1R)-2,2,2-trifluoro-1-[4-({6-methoxy-4-[(1 rel-R)-1-methoxyethyl]-1,5-naphthyridin-3-yl}amino)phenyl]ethyl]-1λ^6-thiane-4-carboxamide] | 274
COc1ccc2ncc(Nc3ccc([C@H](N(C)C(=O)C4CCS(=O)(=O)CC4)C(F)(F)F)cc3)c(C(=O)N3CCC3)c2n1 [CPD0074046, N-[(1S)-1-[4-[[4-(azetidine-1-carbonyl)-6-methoxy-1,5-naphthyridin-3-yl]amino]phenyl]-2,2,2-trifluoro-ethyl]-N-methyl-1,1-dioxo-thiane-4-carboxamide] | 494
COc1ccc2ncc(Nc3ccc([C@H](N(C)C(=O)C4CCS(=O)(=O)CC4)C(F)(F)F)cc3)c(COC3CC3)c2n1 [CPD0074048] | 163
